Reference: US10982174B2, “Synergistic surfactant blends” (STEPAN COMPANY, priority 2012, dated 2021)

Tests used:
Format in all cases: physicochemical
[1] = Critical micelle concentration (CMC) and beta parameter (synergy)
Experimental: Synergy can also be evaluated with respect to a blend's beta parameter (β), which can be calculated from the measured critical micelle concentration. Suitable methods for calculating β have been described previously (see, e.g., U.S. Pat. No. 5,360,571, the teachings of which are incorporated herein by reference).
Conveniently, the critical micelle concentration of a blend is measured at dilute concentrations in deionized water with pH adjusted to be within the range of 6 to 7. Critical micelle concentration generally refers to the minimum concentration of surfactant (in mg/L) needed to support micelle formation. The measurement can be performed, for instance, using a Krüss K12 tensiometer at 25° C. Once the critical micelle concentration is measured, the value of β can be found from:
where X is the total mole fraction of Surfactant 1 in the mixed micelles; α is the mole fraction of Surfactant 1 in solution; C1, C2, and C12 are the critical micelle concentrations of Surfactant 1, Surfactant 2, and their mixture; and β is the interaction parameter.
A negative value of β indicates synergy, while a positive value of β indicates antagonism, and values close to zero indicate little or no synergy.
The critical micelle concentration (CMC) of a blend is measured at a diluted concentration in deionized water with pH adjusted to 6-7. The measurement is done at 25° C. using a Kruss K100 tensiometer. The synergy of the blends, indicated by the beta parameter, is calculated based on the CMC data using the equation, β=[In(αA12/XA1)]/(1−X)^2 in which α is the mole fraction of the anionic surfactant in solution, X is the mole fraction of the anionic surfactant in mixed micelles, A1 is the critical micelle concentration of the anionic surfactant, and A12 is the critical micelle concentration of the blend.

[2] = Appearance / solubility of surfactant blends, neat and diluted with deionized water; settings: SLS/Quat (molar) 0:1
Experimental: All of the surfactant blends tested are prepared at the designated molar ratios without any pH adjustment. Dilutions are made using deionized water to the desired actives level. Actives amounts are wt. % unless indicated otherwise. Appearances are reported at ambient temperature for samples prepared within the last 24 h.

[3] = Interfacial tension (IFT), pendant drop tensiometer, against light mineral oil; settings: individual surfactant, ambient temperature, in mN/m (unit assumed)
Experimental: Interfacial tension is measured by any suitable method. […] The expected IFT value for a blend is calculated based on ideal mixing (non-synergistic) using the active component in each blend. The equation used is: Expected IFT=X·IFTA+(1−X)·IFTB where X is the actives % of Component A, IFTA is the IFT of Component A, and IFTB is the IFT of Component B.
If the measured IFT for a blend is less than the expected IFT, the blend is synergistic; if the measured IFT for a blend is greater than the expected IFT, the blend is antagonistic.
Interfacial tension (IFT) of all the individual components and their blends is measured at a given % active against light mineral oil at ambient temperature using a Kruss DSA-20 pendent drop tensiometer.

[4] = deionized water, pH 6-7, 25° C.

| Structure (SMILES) | Appearance 0.01% actives [2] | Appearance 0.2% actives [2] | Appearance concentrate [2] | IFT (0.1% actives) [3] | further results |
| --- | --- | --- | --- | --- | --- |
| C=CCCCCCCCC(=O)OCC[N+](C)(C)C [C10-7, C10 DMEA Ester Quat] | – | – | – | – | Surface tension at CMC (mN/m) [1]: 41.1 mN/m; CMC (mg/L) [1, 4]: 342.6 mg/L; CMC (mol/L) [1, 4]: 0.000932 mol/L |
| C=CCCCCCCCC(=O)OC(CCCCCCCC(=O)[O-])CS(=O)(=O)[O-].[Na+].[Na+] (centres unmarked) [C10-32, C10 UFA SLA] | – | – | – | 25.9 | – |
| C=CCCCCCCCC[N+](C)(C)C [C10-42, C10 Amine DMS Quat] | – | – | – | 42.0 | – |

Second part, led by results:

| Appearance 0.01% actives [2] | Appearance 0.2% actives [2] | Appearance concentrate [2] | Structure (SMILES) | IFT (0.1% actives) [3] | further results |
| --- | --- | --- | --- | --- | --- |
| clear | clear | solid | C=CCCCCCCCC(=O)NCCC[N+](C)(C)C [C10-18, C10 DMAPA Quat] | – | – |
| clear | clear | solid | CC/C=C/CCCCCCCC(=O)NCCC[N+](C)(C)C [C12-18] | – | – |
